In brackets after ≈: the same amount, converted by molar mass.
Legend:
[1] = tested on: BV2 (mouse microglia) cell line; experiment: pHrodo-myelin phagocytosis/cell viability high content imaging assay: phagocytosis signal; format: cell-based
Outline: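 Mouse BV2 and human HMC3 microglia given pHrodo-myelin; phagocytosis and cell viability imaged together by high content imaging about 22 hours after myelin addition. Three measurements extracted, including intensity increase and decrease marking early and later apoptosis.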

[2] = Kinetic solubility in aqueous buffer pH 7.4 by total chemiluminescent nitrogen determination (Analiza); conditions: aqueous buffer, pH 7.4, aqueous buffer, kinetic from dmso stock
[3] = tested on: BV2 (mouse microglia) cell line; experiment: pHrodo-myelin phagocytosis/cell viability high content imaging assay: viability (cell count, nuclear area, nuclear intensity); conditions: 10 μM, BV2
Outline: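 Viability was read as total cell count per well by high-content imaging, with mean average nuclear intensity per cell profiling apoptosis (rise early, fall late). Compounds were given at 10 μM for 48 h, pHrodo-myelin being added for the final 20 h. Values are means of two points as % untreated control.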

Compound | solubility kinetic [2] [µM] | further results
CC1(C)CCC(CN2CCN(c3ccc(C(=O)NS(=O)(=O)c4ccc(NCC5CCOCC5)c([N+](=O)[O-])c4)c(Oc4cnc5[nH]ccc5c4)c3)CC2)=C(c2ccc(Cl)cc2)C1 [Venetoclax (ABT-199)] | 6.3 (≈ 5.47 µg/mL) | Stimulation of mouse microglial phagocytosis at 10 μM (>150% control) ([1]; BV2, 10 μM): Y (The compound was found to stimulate phagocytosis (response threshold: >150% control) when murine immortalized microglial cells were dosed at 10 μM (Y: yes))
CCOC(=O)N1CCC(Nc2c(NCCN3CCN(c4cccc(C(F)(F)F)c4)CC3)c(=O)c2=O)CC1 [Squarunkin A] | 0.7 (≈ 0.366 µg/mL) | 
CC(C)c1ccc(/C=N/NC(=O)c2ccc(O)cc2)cc1 [GSK 4716] | 215 (≈ 60.6 µg/mL) | 
Cc1cc(NC(=O)Nc2ccc(F)c(F)c2)n(-c2ccccc2)n1 [ML 297] | 49.9 (≈ 16.4 µg/mL) | Stimulation of mouse microglial phagocytosis at 10 μM (>150% control) ([1]; 10 μM, BV2): Y (The compound was found to stimulate phagocytosis (response threshold: >150% control) when murine immortalized microglial cells were dosed at 10 μM (Y: yes))
COc1cc(C(=O)NS(=O)(=O)c2ccccc2C)ccc1Cc1cn(C)c2ccc(NC(=O)OC3CCCC3)cc12 [Zafirlukast] | 129 (≈ 74.4 µg/mL) | 
O=c1[nH]c(=O)n([C@H]2C[C@H](O)[C@@H](CO)O2)cc1/C=C/Br [RP101 (Brivudine)] | 199 (≈ 66.2 µg/mL) | 
O=C(NC1CC1)C(=O)C(Cc1ccccc1)NC(=O)[C@H]1CCC(=O)N1Cc1ccccc1 (some centres unmarked) [ABT-957 (Alicapistat)] | 176 (≈ 76.5 µg/mL) | 
CC/C(=C(\c1ccc(O)cc1)c1ccc(OCCN(C)C)cc1)c1ccccc1 [Afimoxifene] | 19.5 (≈ 7.56 µg/mL) | Stimulation of mouse microglial phagocytosis at 10 μM (>150% control) ([1]; BV2, 10 μM): Y (The compound was found to stimulate phagocytosis (response threshold: >150% control) when murine immortalized microglial cells were dosed at 10 μM (Y: yes))
O=c1oc2ccccc2cc1-c1cn2cc(Cc3ccc(F)cc3)sc2n1 [iMDK] | < 1.1 | Mouse microglial cytotoxicity at 10 μM (<70% control) [3]: Y (The compound was found to be cytotoxic (cell count threshold: <70% control) when murine immortalized microglial cells were dosed at 10 μM (Y: yes))
Cc1ccc(-n2nc(C(C)(C)C)cc2NC(=O)Nc2ccc(OCCN3CCOCC3)c3ccccc23)cc1 [Doramapimod (BIRB 796)] | 3.6 (≈ 1.9 µg/mL) | Stimulation of mouse microglial phagocytosis at 10 μM (>150% control) ([1]; 10 μM, BV2): Y (The compound was found to stimulate phagocytosis (response threshold: >150% control) when murine immortalized microglial cells were dosed at 10 μM (Y: yes))
Cl.O=C(O)Cc1cccc(OCCCN(Cc2cccc(C(F)(F)F)c2Cl)CC(c2ccccc2)c2ccccc2)c1 [GW 3965 HCl] | 4.1 | 

Continued, in another order:

solubility kinetic [2] [µM] | Compound | further results
4.6 (≈ 1.69 µg/mL) | CCn1c(=O)/c(=C2\Sc3ccccc3N2C)s/c1=C\c1ccccn1 [YM-08] | 
1.4 (≈ 0.701 µg/mL) | Cc1cnc(Nc2ccc(F)cc2Cl)nc1-c1c[nH]c(C(=O)N[C@H](CO)c2cccc(Cl)c2)c1 [Vertex 11e] | 
126 (≈ 47.6 µg/mL) | CN1C[C@H](Nc2cnn(C)c(=O)c2Br)C[C@H](c2ccccc2)C1 [GSK4027] | 
0.9 (≈ 0.732 µg/mL) | CN(C)CC[C@H](CSc1ccccc1)Nc1ccc(S(=O)(=O)NC(=O)c2ccc(N3CCN(Cc4ccccc4-c4ccc(Cl)cc4)CC3)cc2)cc1[N+](=O)[O-] [ABT-737] | 
